Square brackets hold non-standard residues; d marks the D form. Peptide text beside a SMILES is read from it. hArg = N=C(N)NCCCC[C@H](N)C(=O)O; Nle = CCCC[C@H](N)C(=O)O; Aib = CC(C)(N)C(=O)O
Key:
[1] = molecular target: T1, human P1R (Homo sapiens, UniProt Q03431); assay: Competition binding in HKRK-B28 cells; settings: HKRK-B28 cells
T1 construct: expressed in transfected cells; host or cells: HKRK-B28 (porcine kidney LLC-PK1, stably transfected)
T1 sequence (Q03431 27-593): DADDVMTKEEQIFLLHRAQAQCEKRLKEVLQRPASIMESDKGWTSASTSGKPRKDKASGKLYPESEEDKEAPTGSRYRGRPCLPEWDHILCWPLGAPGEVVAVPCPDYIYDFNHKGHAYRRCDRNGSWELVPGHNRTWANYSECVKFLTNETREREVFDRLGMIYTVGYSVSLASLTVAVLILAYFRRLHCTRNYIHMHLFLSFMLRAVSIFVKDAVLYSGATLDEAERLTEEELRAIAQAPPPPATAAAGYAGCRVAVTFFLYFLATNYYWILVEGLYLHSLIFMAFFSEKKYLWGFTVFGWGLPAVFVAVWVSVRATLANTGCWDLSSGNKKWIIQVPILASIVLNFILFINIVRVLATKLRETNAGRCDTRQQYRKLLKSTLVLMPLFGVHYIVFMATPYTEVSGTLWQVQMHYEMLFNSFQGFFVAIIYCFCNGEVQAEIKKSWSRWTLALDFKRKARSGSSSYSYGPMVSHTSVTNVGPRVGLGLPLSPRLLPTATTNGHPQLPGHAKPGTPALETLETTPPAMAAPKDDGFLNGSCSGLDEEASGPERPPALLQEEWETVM
Method: (§1) Cell Culture. The cell line HKRK-B28 (Takasu, H., et al., J. Bone Miner. Res. 14:11-20 (1999)) was derived from the porcine kidney cell line, LLC-PK1 by stable transfection with plasmid DNA encoding the human P1R and expresses ˜280,000 receptors per cell. These cells, as well as COS-7 cells and SaOS-2-B10 cells, were cultured at […] in T-75 flasks ([…]) in Dulbecco's modified Eagle's medium (DMEM) supplemented with fetal bovine serum (10%), penicillin G (20 units/ml), streptomycin sulfate (20 μg/ml) and amphotericin B (0.05 μg/ml) in a humidified atmosphere containing 5% CO2. Stock solutions of EGTA/trypsin and antibiotics were from GIBCO; fetal bovine serum was from Hyclone Laboratories (Logan, Utah). COS-7 cells sub-cultured in 24-well plates were transfected with plasmid DNA (200 ng per well) encoding the wild-type human P1R or truncated human P1R deleted for residues (24-181) (Shimizu, M., et al., J. Biol. Chem. 275:21836-21843 (2000)) that was purified by cesium chloride/ethidium bromide density gradient centrifugation, and FuGENE 6 transfection reagent (Roche Indianapolis Ind.) according to the manufacturer's recommended procedure. All cells, in 24-well plates, were treated with fresh media and shifted to 33° C. for 12 to 24 h prior to assay.
(§2) Competition Binding. Binding reactions were performed with HKRK-B28 cells or in COS-7 cells in 24-well plates. The cells were rinsed with 0.5 mL of binding buffer, and then treated successively with 100 μL binding buffer, 100 μL of binding buffer containing various amounts of unlabeled competitor ligand, and 100 μL of binding buffer containing ca. 100,000 cpm of ^125I-[M]PTH(1-21) or ^125I-[Aib^1,3,M]PTH(1-21)} (ca. 26 fmol; final volume=300 μL). Incubations were 4 to 6 h at 4° C., at which time near equilibrium conditions were attained. Cells were then placed on ice, the binding medium was removed, and the monolayer was rinsed three times with 0.5 mL of cold binding buffer. The cells were subsequently lysed with 0.5 mL […] and counted for radioactivity. For each tracer and in each experiment, the non-specific binding was determined as the radioactivity that bound in the presence of the same unlabeled peptide at a concentration of 1 μM, and was ˜1% of total radioactivity added for each tracer. The maximum specific binding (B0) was the total radioactivity bound in the absence of competing ligand, corrected for nonspecific binding, and for each tracer, ranged from 8% to 20% of the total radioactivity added. Nonlinear regression was used to calculate binding IC50 values (see below). Scatchard transformations of homologous competition binding data derived from studies with 26 fmol of ^125I-[Aib^1,3,M]PTH(1-21) were employed for estimations of apparent equilibrium dissociation constant (kDapps) and total number of ligand binding sites (Bmax), assuming a single class of binding sites and equal affinities of the iodinated and non iodinated ligand.
(§3) Data Calculation. Calculations were performed using Microsoft® Excel. Nonlinear regression analyses of binding and cAMP dose-response data were performed using the four-parameter equation: yp=Min+[(Max−Min)/(1+(IC50/x)^slope)]. The Excel Solver function was utilized for parameter optimization, as described previously (Carter, P. H., et al., Endocrinology 140: 4972-4981 (1999); Bowen, W. P., and Jerman, J. C., Trends in Pharmacol. Sci. 16: 413-417 (1995)). Differences between paired data sets were statistically evaluated using a one-tailed Student's t-test, assuming unequal variances for the two sets.
The P1R-binding properties of these analogs were assayed in competition studies performed in […]. In previous studies, PTH(1-14) binding could not be detected using ^125I-PTH(1-34) and related N-terminally intact and relatively unmodified radioligands (Luck, M. D., et al., Molecular Endocrinology 13:670-680 (1999)). […]

[2] = molecular target: T1, human P1R; assay: cAMP stimulation in HKRK-B28 cells; format: cell-based; settings: for cAMP EMax(obs.): basal 4.0 ± 0.1 pmole/well not subtracted
Method: as §1
(§4) cAMP Stimulation. Stimulation of cells with peptide analogs was performed in 24-well plates. Cells were rinsed with 0.5 mL of binding buffer (50 mM Tris-HCI, […], 5 mM KCl, 2 mM CaCl2, 5% heat-inactivated horse serum, 0.5% fetal bovine serum, adjusted to pH 7.5 with HCl) and treated with 200 μL of cAMP assay buffer (Delbecco's modified Eagle's medium containing 2 mM 3-isobutyl-1-methylxanthine, 1 mg/mL bovine serum albumin, 35 mM Hepes-NaOH, pH 7.4) and 100 μL of binding buffer containing varying amounts of peptide analog (final volume=300 μL). The medium was removed after incubation for 30 to 60 minutes at room temperature, and the cells were frozen on dry ice, lysed with 0.5 mL 50 mM HCl, and refrozen ([…]). The cAMP content of the diluted lysate was determined by radioimmunoassay. The EC50 response values were calculated using nonlinear regression (see below).
as §3

[3] = molecular target: T2, PTH-1 receptor endogenously expressed in SaOS-2 cells (Homo sapiens, UniProt Q03431); assay: cAMP stimulation in SaOS-2 cells; format: cell-based
T2 construct: endogenously expressed relatively low levels of the PTH-1 receptor; endogenous in cells; host or cells: SaOS-2 (SaOS-2-B10) human osteosarcoma cells
T2 sequence (Q03431 27-593): T1 sequence (Q03431 27-593)
Method: as §1, §4, §3
The number of PTH-1 receptors expressed on the surface of the PTH target cells in bone or kidney is uncertain, but it is likely to be considerably lower than that found in HKRK-B28 cells. Therefore, several of the Aib-mounted PTH analogs were evaluated using SaOS-2 cells.

[4] = molecular target: T3, P1R-delNt, truncated human P1R deleted for residues (24-181) (Homo sapiens, UniProt Q03431); assay: cAMP stimulation in COS-7 cells expressing hP1R-delNt; format: cell-based; settings: hP1R-delNT
T3 construct: expressed in transfected cells; host or cells: COS-7 (transient, FuGENE 6)
T3 sequence (Q03431 with tags, fused parts or gaps limits assumed): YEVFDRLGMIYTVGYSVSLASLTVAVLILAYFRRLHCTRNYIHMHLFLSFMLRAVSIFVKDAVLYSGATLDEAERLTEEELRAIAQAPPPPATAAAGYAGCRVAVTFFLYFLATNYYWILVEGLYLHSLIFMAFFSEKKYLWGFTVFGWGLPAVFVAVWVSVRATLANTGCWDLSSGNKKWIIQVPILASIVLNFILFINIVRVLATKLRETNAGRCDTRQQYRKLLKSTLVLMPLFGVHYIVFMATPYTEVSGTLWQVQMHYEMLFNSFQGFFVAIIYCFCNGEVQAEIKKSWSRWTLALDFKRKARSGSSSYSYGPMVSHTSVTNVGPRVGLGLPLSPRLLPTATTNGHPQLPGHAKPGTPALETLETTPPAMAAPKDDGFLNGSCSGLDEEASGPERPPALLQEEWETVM
Method: as §1, §4, §3
The possibility that the activity-enhancing effects of the Aib substitutions at positions 1 and 3 were mediated through the juxtamembrane (J) region of the receptor was investigated in COS-7 cells transiently transfected with P1R-delNt. P1R-delNt was a truncated P1R that lacked most of the amino-terminal extracellular domain.

[5] = molecular target: T3, P1R-delNt, truncated human P1R deleted for residues (24-181); assay: Competition binding in COS-7 cells expressing hP1R-delNt; settings: COS-7 cells
[6] = molecular target: T4, wild-type human P1R (hP1R-WT) (Homo sapiens, UniProt Q03431); assay: cAMP stimulation in COS-7 cells expressing hP1R-WT; format: cell-based; settings: hP1R-WT, basal 10.3 ± 1.1, asterisk = plateau not attained
T4 construct: expressed in transfected cells; host or cells: COS-7 (transient, FuGENE 6)
T4 sequence (Q03431 27-593): T1 sequence (Q03431 27-593)
Method: as §1, §4, §3

[7] = molecular target: T4, wild-type human P1R (hP1R-WT); assay: Competition binding in COS-7 cells expressing hP1R-WT; settings: P1R-WT; Scatchard transformation of homologous competition binding; read-out: apparent equilibrium dissociation constant (KDapp)
Method: as §1, §2
Data Calculation. Calculations were performed using Microsoft® Excel. Nonlinear regression analyses of binding and cAMP dose-response data were performed using the four-parameter equation: yp=Min+[(Max−Min)/(1+(IC50/x)^slope)]. […] Differences between paired data sets were statistically evaluated using a one-tailed Student's t-test, assuming unequal variances for the two sets. […]

fold improvement of apparent binding affinity relative to [M]PTH(1-14) [1] | cAMP EMax(obs.) [2] [pmole/well] | fold more potent in stimulating cAMP formation than [M]PTH(1-14) [3] [fold] | EMAX(obs.) ([3]; cAMP, basal 6.4 ± 0.8) [pmole/well] | IC50 ([1]; tracer 125I-[M]PTH(1-21)amide, 4 h at 4° C., N.B. = no binding detected at 10 μm peptide) [M] | EC50 [2] [nM] | EC50 [4] [nM] | affinity at P1R-delNt, fold weaker than at P1R-WT [5] [fold] | Binding IC50 ([5]; hP1R-delNT, tracer 125I-[Aib^1,3,M]PTH(1-21), N.B. = no inhibition of tracer binding) | cAMP EMax(obs.) [6] [pmole/well] | cAMP EMax(obs.) ([4]; basal 9.5 ± 1.3, asterisk = plateau not attained) [pmole/well] | Kd [7] [nM] | Structure (SMILES)
approximately 10 fold | 273 ± 6 | 15 | 340 ± 30 | – | – | – | – | – | – | – | – | CC[C@H](C)[C@H](NC(=O)[C@H](CCC(=O)O)NC(=O)[C@H](C)NC(=O)[C@@H](NC(=O)C(C)(C)N)C(C)C)C(=O)N[C@@H](CCC(N)=O)C(=O)N[C@@H](CC(C)C)C(=O)N[C@@H](CCSC)C(=O)N[C@@H](Cc1c[nH]cn1)C(=O)N[C@@H](CCC(N)=O)C(=O)N[C@@H](CCCCNC(=N)N)C(=O)N[C@@H](C)C(=O)N[C@@H](CCCCN)C(=O)N[C@@H](Cc1c[nH]c2ccccc12)C(N)=O [Aib-1, AibValAlaGluIleGlnLeuMetHisGlnHarAlaLysTrp] (H-[Aib]VAEIQLMHQ[hArg]AKW-NH2)
– | – | – | – | 1.3e-05 | 100 ± 20 | 40 ± 2 | – | – | – | – | – | CC[C@H](C)[C@H](NC(=O)[C@H](CCC(=O)O)NC(=O)[C@H](C)NC(=O)[C@@H](NC(=O)[C@H](C)N)C(C)C)C(=O)N[C@@H](CCC(N)=O)C(=O)N[C@@H](CC(C)C)C(=O)N[C@@H](CCSC)C(=O)N[C@@H](Cc1cnc[nH]1)C(=O)N[C@@H](CCC(N)=O)C(=O)N[C@@H](CCCCN=C(N)N)C(=O)N[C@@H](C)C(=O)N[C@@H](CCCCN)C(=O)N[C@@H](Cc1c[nH]c2ccccc12)C(N)=O [[M]PTH(1-14), [Ala^3,12,Gln^10,Har^11,Trp^14]PTH(1-14)amide, reference compound] (H-AVAEIQLMHQ[hArg]AKW-NH2)
– | 284 ± 76 | – | – | – | – | – | < 2 | effectively inhibited the binding | 300 ± 30 | 240 ± 20 | 17 ± 2 | CCCC[C@H](NC(=O)[C@H](CC(C)C)NC(=O)[C@H](CCC(N)=O)NC(=O)[C@@H](NC(=O)[C@H](CCC(=O)O)NC(=O)C(C)(C)NC(=O)[C@@H](NC(=O)C(C)(C)N)C(C)C)[C@@H](C)CC)C(=O)N[C@@H](Cc1c[nH]cn1)C(=O)N[C@@H](CCC(N)=O)C(=O)N[C@@H](CCCCNC(=N)N)C(=O)N[C@@H](C)C(=O)N[C@@H](CCCCN)C(=O)N[C@@H](Cc1c[nH]c2ccccc12)C(=O)N[C@@H](CC(C)C)C(=O)N[C@@H](C)C(=O)N[C@@H](CO)C(=O)N[C@H](C(=O)N[C@@H](CCCNC(=N)N)C(=O)N[C@@H](CCCNC(=N)N)C(=O)N[C@@H](Cc1ccc(O)cc1)C(N)=O)C(C)C [[Aib^1,3,M]PTH(1-21), AibValAibGluIleGlnLeuNleHisGlnHarAlaLysTrpLeu-AlaSerValArgArtTyr] (H-[Aib]V[Aib]EIQL[Nle]HQ[hArg]AKWLASVRRY-NH2)
